From US11603387B2, “SOCS mimetics for the treatment of diseases” (UNIVERSITY OF FLORIDA RESEARCH FOUNDATION, INC., priority 2014, dated 2023)

Tested on: STAT1
Experiment: pSTAT1/STAT1 western blotting under Th17 inducing conditions
Type: cell-based, mouse
Settings: SOCS1+/− CD4+ T cells, SOCS1-KIR peptide (20 μM)
Procedure: FIGS. 5A-5D. […] (FIGS. 5A and 5B) SOCS1^+/+ or SOCS1^+/− CD4^+CD25^− T cells were stimulated with αCD3 antibodies alone or with αCD3+SOCS1-KIR peptide (20 μM) for 72 h. (FIG. 5A) CD25 expressing cells were assessed by flow cytometry. Results are representative of 4 independent experiments. (FIG. 5B) Proliferation was assessed by CFSE labeling and flow cytometry, cell counts, and ^3[H] thymidine incorporation. n=4. (FIGS. 5C and 5D) SOCS1^+/+ or SOCS1^+/− CD4^+CD25^− T cells were placed under Th17 inducing conditions in the absence or presence of SOCS1-KIR peptide (20 μM) (FIG. 5C) IFNγ expression, relative to β-actin., was assessed by qPCR (left) and ELISA (right) (n=4). (FIG. 5D) pSTAT1 and STAT1 protein expressions were assessed by western blotting. Results are representative of 4 independent experiments. Statistical comparisons were performed using Mann-Whitney U test. (*P<0.05). iTh17=Th17 inducing conditions, WT=SOCS1^+/+, and HT=SOCS1^+/−.
MACS purified CD4^+CD25^− T cells were stimulated with anti-CD3 Ab (10 μg/ml), anti-CD3 (10 μg/ml) and anti-CD28 (1.5 μg/ml) Abs, or Th17 inducing conditions in the presence or absence of SOCS1-KIR peptide as previously described. […] Equal quantities of protein were loaded and separated in 4%-12% SDS-PAGE gel (Biorad). […]

DTHFRTFRSHSDYRRI (SOCS1-KIR peptide) [SOCS1 mimetic peptide corresponding to the KIR region of SOCS1]
STAT1 activation (phosphorylation): drastically reduced the enhanced STAT1 activation
